23 substances from US9597407B2, “Targeted antimicrobial moieties” (C3 Jian, Inc., priority 2009, dated 2017) can be followed below.

In assay [1] the test system is bacteria. Description: Binding of targeting peptides to microorganisms (Table 3). As to conditions: peptide binding in aqueous buffers that varied depending on peptide solubility; preferably 1x PBS.
In assay [2] the test system is microorganisms. Put plainly: Morphology, biofilm and growth disruption by peptides (Table 5). Type of assay: cell-based. The arrangement: key: A: Peptide aggregates; B: Less hyphal formation; Clumps; Diffuse clumps and small polyps; F: Diffuse growth; H: Thin; I: Growth inhibition; Microcolony formation; Rippled; Small polyps; Thick; W: Halo formation on top, microlonies on bottom. An excerpt:
In certain embodiments peptides that induce alterations in phenotype or other biological activities can also be used as antimicrobial effector moieties.

For the substance “PF-660 (chain 1 TDPQATAAPRRRTSPR; chain 2 TDPQATAAPRRRTSPR; Peptide with targeting and/or antimicrobial activity)”, in assay [1], the “Target(s) (microorganism bound by the targeting peptide)” value is given as “Mycobacteria spp”. Moreover, in assay [2] (S. pneumoniae), the “Organism, effect (morphology, biofilm and growth disruption)” value is “S. pneumoniae (H)”.
For “PF-661 (chain 1 PDEDIRRRAILPPAGPCRPMSPE; chain 2 PDEDIRRRAILPPAGPCRPMSPE; Peptide with targeting and/or antimicrobial activity)”, the “Target(s) (microorganism bound by the targeting peptide)” value in assay [1] is “Mycobacteria spp”. The “Organism, effect (morphology, biofilm and growth disruption)” value in assay [2] (MRSA) is on record as “MRSA (R)”.
As to “PF-662 (chain 1 GKQSRAHGPVASRREFRRKSG; chain 2 GKQSRAHGPVASRREFRRKSG; Peptide with targeting and/or antimicrobial activity)”, the “Target(s) (microorganism bound by the targeting peptide)” value in assay [1] was “Mycobacteria spp”. For the same substance, in assay [2] (S. pneumoniae), the “Organism, effect (morphology, biofilm and growth disruption)” value is reported as “S. pneumoniae (A)”.
Taken in the same sequence, the figures for “PF-663 (chain 1 ATLIPRKA; chain 2 ATLIPRKA; Peptide with targeting and/or antimicrobial activity)” were “Mycobacteria spp” and “S. pneumoniae (A)”.
As to “PF-664 (chain 1 DQLCVEYPARVSTG; chain 2 DQLCVEYPARVSTG; Peptide with targeting and/or antimicrobial activity)”, the “Target(s) (microorganism bound by the targeting peptide)” value in assay [1] is on record as “M. smegmatis”. Besides, the “Organism, effect (morphology, biofilm and growth disruption)” value is “E. faecalis (R)” in assay [2] (E. faecalis), “MRSA (R)” in assay [2] (MRSA), “S. epidermidis (M)” in assay [2] (S. epidermidis) and “S. pneumoniae (M)” in assay [2] (S. pneumoniae).
For the substance “PF-665 (chain 1 VLRVATAVGEVPTGL; chain 2 VLRVATAVGEVPTGL; Peptide with targeting and/or antimicrobial activity)”, the “Target(s) (microorganism bound by the targeting peptide)” value in assay [1] is “Mycobacteria spp”. Moreover, the “Organism, effect (morphology, biofilm and growth disruption)” value in assay [2] (S. pneumoniae) is recorded as “S. pneumoniae (H)”.
On the same counts, the results for “PF-666 (chain 1 PNRRSRPR; chain 2 PNRRSRPR; Peptide with targeting and/or antimicrobial activity)” are “Mycobacteria spp” and “S. pneumoniae (A)”.
For “PF-667 (chain 1 PAHQRLRIDQRLVADRDMVQDYES; chain 2 PAHQRLRIDQRLVADRDMVQDYES; Peptide with targeting and/or antimicrobial activity)”, the “Target(s) (microorganism bound by the targeting peptide)” value in assay [1] was “Mycobacteria spp”. For the same substance, the “Organism, effect (morphology, biofilm and growth disruption)” value is listed as “E. faecalis (R)” in assay [2] (E. faecalis), “MRSA (R)” in assay [2] (MRSA), “S. epidermidis (R)” in assay [2] (S. epidermidis) and “S. pneumoniae (R)” in assay [2] (S. pneumoniae).
As to “PF-668 (chain 1 TNAESMALAFRGRVHMSVNIAGLT; chain 2 TNAESMALAFRGRVHMSVNIAGLT; Peptide with targeting and/or antimicrobial activity)”, in assay [1], the “Target(s) (microorganism bound by the targeting peptide)” value is recorded as “Mycobacteria spp”. For the same substance, the “Organism, effect (morphology, biofilm and growth disruption)” value was “B. subtilis (A)” in assay [2] (B. subtilis); “C. albicans (A)” in assay [2] (C. albicans); “C. jeikeium (D)” in assay [2] (C. jeikeium); “E. faecalis (D)” in assay [2] (E. faecalis); “MRSA (R)” in assay [2] (MRSA); “S. epidermidis (M)” in assay [2] (S. epidermidis). The “Organism, effect (morphology, biofilm and growth disruption)” value in assay [2] (S. pneumoniae) is recorded as “S. pneumoniae (M)”.
Take “PF-675 (chain 1 EIIPISPTRRCEMHTMSSAEYRGL; chain 2 EIIPISPTRRCEMHTMSSAEYRGL; Peptide with targeting and/or antimicrobial activity)”: the “Target(s) (microorganism bound by the targeting peptide)” value in assay [1] is given as “Mycobacteria spp”. Besides, the “Organism, effect (morphology, biofilm and growth disruption)” value in assay [2] (E. faecalis) is given as “E. faecalis (R)”; in assay [2] (S. pneumoniae), “S. pneumoniae (C)”.
With “PF-677 (chain 1 TCRGAGMH; chain 2 TCRGAGMH; Peptide with targeting and/or antimicrobial activity)”, in assay [1], the “Target(s) (microorganism bound by the targeting peptide)” value was “Mycobacteria spp”. For the same substance, the “Organism, effect (morphology, biofilm and growth disruption)” value is on record as “E. faecalis (R)” in assay [2] (E. faecalis), “MRSA (D)” in assay [2] (MRSA), “S. epidermidis (R)” in assay [2] (S. epidermidis) and “S. pneumoniae (D)” in assay [2] (S. pneumoniae).
“PF-680 (chain 1 ADPHPTTGI; chain 2 ADPHPTTGI; Peptide with targeting and/or antimicrobial activity)”: the “Target(s) (microorganism bound by the targeting peptide)” value in assay [1] was “Mycobacteria spp”. For the same substance, the “Organism, effect (morphology, biofilm and growth disruption)” value in assay [2] (MRSA) is “MRSA (R)”.
For “PF-681 (chain 1 TALTTVGVSGARLITYCVGVEDI; chain 2 TALTTVGVSGARLITYCVGVEDI; Peptide with targeting and/or antimicrobial activity)”, the “Target(s) (microorganism bound by the targeting peptide)” value in assay [1] was “M. smegmatis”. Further, the “Organism, effect (morphology, biofilm and growth disruption)” value in assay [2] (C. jeikeium) is recorded as “C. jeikeium (R)”; in assay [2] (E. faecalis), “E. faecalis (R)”; in assay [2] (MRSA), “MRSA (M)”; in assay [2] (S. epidermidis), “S. epidermidis (M)”; in assay [2] (S. pneumoniae) it was “S. pneumoniae (M)”.
As to “PF-682 (chain 1 RRGKSEQGLSRR; chain 2 RRGKSEQGLSRR; Peptide with targeting and/or antimicrobial activity)”, the “Target(s) (microorganism bound by the targeting peptide)” value in assay [1] is listed as “Mycobacteria spp”. Also, the “Organism, effect (morphology, biofilm and growth disruption)” value in assay [2] (S. pneumoniae) is on record as “S. pneumoniae (A)”.
Take “PF-683 (chain 1 LWPVA; chain 2 LWPVA; Peptide with targeting and/or antimicrobial activity)”: in assay [1], the “Target(s) (microorganism bound by the targeting peptide)” value is reported as “Mycobacteria spp”. Also, the “Organism, effect (morphology, biofilm and growth disruption)” value is “MRSA (R)” in assay [2] (MRSA), “S. epidermidis (R)” in assay [2] (S. epidermidis) and “S. pneumoniae (H)” in assay [2] (S. pneumoniae).
Consider “PF-684 (chain 1 RKLSLASGFALWRRSLV; chain 2 RKLSLASGFALWRRSLV; Peptide with targeting and/or antimicrobial activity)”, for which the “Target(s) (microorganism bound by the targeting peptide)” value in assay [1] is on record as “Mycobacteria spp”. In addition, the “Organism, effect (morphology, biofilm and growth disruption)” value in assay [2] (C. albicans) was “C. albicans (B)”; in assay [2] (E. faecalis), “E. faecalis (A)”; in assay [2] (S. pneumoniae), “S. pneumoniae (C)”.
Regarding “PF-685 (chain 1 PTLWLACL; chain 2 PTLWLACL; Peptide with targeting and/or antimicrobial activity)”, the “Target(s) (microorganism bound by the targeting peptide)” value in assay [1] is reported as “Mycobacteria spp”. Also, the “Organism, effect (morphology, biofilm and growth disruption)” value in assay [2] (C. jeikeium) is “C. jeikeium (R)”; in assay [2] (E. faecalis), “E. faecalis (R)”; in assay [2] (MRSA), “MRSA (M)”; in assay [2] (S. epidermidis), “S. epidermidis (M)”; in assay [2] (S. pneumoniae) it was “S. pneumoniae (M)”.
With “PF-686 (chain 1 LAVLMGYIGYRGWSGKRHINRQ; chain 2 LAVLMGYIGYRGWSGKRHINRQ; Peptide with targeting and/or antimicrobial activity)”, the “Target(s) (microorganism bound by the targeting peptide)” value in assay [1] is given as “M. smegmatis”. Moreover, the “Organism, effect (morphology, biofilm and growth disruption)” value in assay [2] (B. subtilis) is reported as “B. subtilis (I)”; in assay [2] (C. albicans), “C. albicans (B)”; in assay [2] (E. faecalis), “E. faecalis (R)”; in assay [2] (MRSA) it was “MRSA (M)”; in assay [2] (S. epidermidis), “S. epidermidis (H)”; in assay [2] (S. pneumoniae) it was “S. pneumoniae (A)”.
In the case of “PF-687 (chain 1 AKRVLSLAVAPHRRQPVQGT; chain 2 AKRVLSLAVAPHRRQPVQGT; Peptide with targeting and/or antimicrobial activity)”, the “Target(s) (microorganism bound by the targeting peptide)” value in assay [1] is recorded as “Mycobacteria spp”. The “Organism, effect (morphology, biofilm and growth disruption)” value in assay [2] (S. pneumoniae) is on record as “S. pneumoniae (A)”.
Taken in the same sequence, the figures for “PF-688 (chain 1 ARNHAVIPAG; chain 2 ARNHAVIPAG; Peptide with targeting and/or antimicrobial activity)” were “Mycobacteria spp” and “S. pneumoniae (A)”.
Regarding “PF-690 (chain 1 MIPLAGDPVSSHRTVEFGVLGTYLVSGGSL; chain 2 MIPLAGDPVSSHRTVEFGVLGTYLVSGGSL; Peptide with targeting and/or antimicrobial activity)”, the “Target(s) (microorganism bound by the targeting peptide)” value in assay [1] is given as “Mycobacteria spp”. For the same substance, the “Organism, effect (morphology, biofilm and growth disruption)” value in assay [2] (E. faecalis) is given as “E. faecalis (R)”; in assay [2] (MRSA), “MRSA (R)”; in assay [2] (S. epidermidis), “S. epidermidis (R)”; in assay [2] (S. pneumoniae), “S. pneumoniae (M)”.
In the case of “PF-691 (chain 1 HRTVEFGVLGTYLVSGGSL; chain 2 HRTVEFGVLGTYLVSGGSL; Peptide with targeting and/or antimicrobial activity)”, the “Target(s) (microorganism bound by the targeting peptide)” value in assay [1] is listed as “Mycobacteria spp”. Also, in assay [2] (S. pneumoniae), the “Organism, effect (morphology, biofilm and growth disruption)” value is recorded as “S. pneumoniae (R)”.
Consider “PF-692 (chain 1 GVAREDPLEPDPLAPIIDDSR; chain 2 GVAREDPLEPDPLAPIIDDSR; Peptide with targeting and/or antimicrobial activity)”, for which the “Target(s) (microorganism bound by the targeting peptide)” value in assay [1] is recorded as “Mycobacteria spp”. The “Organism, effect (morphology, biofilm and growth disruption)” value in assay [2] (MRSA) is given as “MRSA (R)”.
